# Reference: patent publication US10449200B2, “Combined inhibition of the vitamin D receptor and poly(ADP) ribose polymerase (PARP) in the treatment of cancer” (Institute for Cancer Research, priority 2014, dated 2019)
# Read-outs that look alike come from different tables or passages of the source.
# Experiments:
# BxPC3 cells = test: Immunofluorescence of DNA damage foci (phospho-γH2AX, Rad51, 53BP1) after gemcitabine; assay type: cell-based, human; settings: for cells positive for Rad51 foci (>5 foci/nucleus): 18 hrs post gemcitabine
# Method: For Immunofluorescence, cells were plated onto coverslips 24 hours pre-gemcitabine treatment. At different timepoints post gemcitabine treatment, cells were permeablized, fixed (4% paraformaldehyde) and stained. Antibodies to γH2AX (Millipore; 05-636), Rad51 (a gift), and 53BP1 were used. Alexa Fluor-conjugated (488, 555, and 647 nm) secondary antibodies (Molecular probes; A-11029, A-21428, A-21247) were used at a final concentration of 1 and nuclei counterstained with DAPI. Images were captured using a 40× or 63× high NA objective mounted on a semi-automated inverted microscope (Nikon TEi) with a charge-coupled device camera (Photometrics1394) using Nikon Elements 2.0. Exposure times for antibodies were optimized for control samples and identical exposure times used for the experimental samples. Images were quantitated and analyzed using Nikon Elements 2.0. Confocal images were taken using a Leica TCS-SP8 microscope controlled by LAS software (Leica Microsystems).
# It was investigated if these repair pathways were abrogated after VDR knockdown by staining for foci formation by phospho-γH2AX, Rad51, and 53BP1, and measuring intensities after gemcitabine treatment (FIGS. 3, 4, and 5). BxPC3 (high VDR expression) and Panc1 (low VDR expression) cells were treated with gemcitabine (50 nM) for 2, 4, 8, and 18 hours, and fixed and stained for phospho-γH2AX, 53BP1, and Rad51. Foci quantitation included counting of nuclei with >5 foci and a separate measurement of the sum intensities of foci that were averaged for 5 separate immunofluorescence experiments. […] Weak but detectable phospho-γH2AX foci were visible within 4 hours of gemcitabine treatment in BxPC3 cells while it took 18 hours for foci to form in Panc1 cells (FIG. 3, A). Similarly, Rad51 foci were visible after 8 hours of gemcitabine treatment in BxPC3 cells compared to 18 hours in Panc1 cells (FIG. 3, A, FIG. 4, and FIG. 5).
# Panc1 cells = test: Cell viability (Cell Titer Glo) in siRNA screen; assay type: cell-based; settings: Homo sapiens, PANC-1, read-out: sublethal dose (IC20)
# Method: Synthetic lethal RNAi Screen. High throughput RNAi was performed using the validated human genome-wide siRNA library version 2.0 obtained from Dharmacon. This is a SMARTPool (4 siRNAs per gene) library that targeted ^˜23,500 of the annotated genes, and has been validated to deplete mRNA by 75%. Stock siRNA was diluted in siRNA buffer (Dharmacon; B-002000-UB-100) and 10 ng of siRNA was reverse transfected into Panc1 cells seeded into white Corning 384-well plates (Fisher Scientific; 07-201-320) in quadruplicates on day 0. Briefly, diluted Dharmafect1 reagent (Dharmacon; T-2001-01) in OptiMEM (Life Technologies; 51985091) was added to the wells and allowed to complex with siRNA for 20 minutes at room temperature. Panc1 cells in 100 μl of DMEM/10% FBS media without PSK were mixed with 100 μl of transfection mix at 1000 cells/well. Plates were incubated at 37° C. with 5% CO2. […] Total viable cell number was determined by the addition of Cell Titer Glo (Promega; G7573) and relative luminescence units (RLU) were measured using an EnVision plate reader (Perkin Elmer). […] The effect of gemcitabine treatment on viability was measured based on the normalized viabilities in the drug treated and vehicle wells using Limma, Statistical significance was measured by p-values controlled for the false discovery rate (FDR) using the Benjamini-Hochberg step-up method to account for multiple testing. […]
# CFPAC1 cells = test: Clonogenic survival assay, gemcitabine kill curves; assay type: cell-based; settings: Homo sapiens
# Method: Cell culture and chemicals. Panc1, BxPC3, and CFPAC1 cells were purchased from American Type Culture Collection (ATCC) and banked in house until use. Cell lines were cultured in DMEM/10% FBS supplemented with 2 mM glutamine and 1% penicillin, streptomycin, and kanamycin (PSK) and were maintained at 37° C. in 5% CO2. Charcoal stripped (in house cell culture facility) and dialyzed FBS (Life Technologies; 509 26400-036) were used. Gemcitabine was obtained from the in house pharmacy. Rucaparib and trichostatin A were gifts.
# Cell viability assays. For clonogenic assays, 1000 cells per well were seeded into 6 well plates on day 0. Cells were treated with gemcitabine at various doses on day 1 for 24 hours, Gemcitabine was washed out on day 2, and cells were allowed to grow for a subsequent 10 days before being fixed (10% methanol+10% acetic acid) and stained with crystal violet (0.4% in 20% ethanol) for colony counting and quantitation. For Rucaparib clonogenic assays, the drug was added at various doses 24 hours after cell plating, and cells were allowed to grow for a subsequent 10 days in the presence of Rucaparib. For TSA clonogenic assays, the drug was added for 4 hours prior to addition of gemcitabine or vehicle for another 18 hours before drugs were washed away, and cells were allowed to grow in drug-free medium for 10 days.
# [1] = BxPC3 VDRkd, 18 hours after gemcitabine
# [2] = BxPC3 VDRkd, 18 hours of gemcitabine
# [3] = Panc1 cells or VDR depleted BXPC3 versus BxPC3, after gemcitabine
# [4] = parental BxPC3, 18 hours of gemcitabine
smiles,measurement,setting,value
Nc1ccn([C@@H]2O[C@H](CO)[C@@H](O)C2(F)F)c(=O)n1 [gemcitabine],time until Rad51 foci detected after gemcitabine,BxPC3 cells; BxPC3 VDRkd cells,18 h
same,time until phospho-γH2AX foci detected after gemcitabine,BxPC3 cells; BxPC3 VDRkd cells,8 h
same,cells exhibiting Rad51 foci,"BxPC3 cells; BxPC3 VDRkd, 4 hrs in gemcitabine (50 nM), absence of TSA",11%
same,cells with diffuse phospho-γH2AX pattern,BxPC3 cells; [1],82%
same,cells with punctate phospho-γH2AX foci,BxPC3 cells; [1],18%
same,cells with clear Rad51 foci,BxPC3 cells; [2],28%
same,cells with diffuse 53BP1 pattern,BxPC3 cells; [2],69%
same,cells with diffuse Rad51 staining,BxPC3 cells; [2],72%
same,cells with punctate 53BP1 foci,BxPC3 cells; [2],31%
same,cells positive for Rad51 foci (>5 foci/nucleus),BxPC3 cells; BxPC3 control cells,~84%
same,cells positive for Rad51 foci (>5 foci/nucleus),BxPC3 cells; BxPC3 transfected with p300 shRNA,~22%
same,delay of Rad51 foci formation kinetics,BxPC3 cells; [3],4 h
same,delay of phospho-γH2AX foci formation kinetics,BxPC3 cells; [3],6 h
same,reduction of Rad51 foci intensity,BxPC3 cells; [3],1.5 fold
same,reduction of phospho-γH2AX foci intensity,BxPC3 cells; [3],2 fold
same,reduction of Rad51 focal intensity,"BxPC3 cells; p300 knockdown cells compared to control cells, gemcitabine treated",~35%
same,cells with punctate phospho-γH2AX foci,"BxPC3 cells; parental BxPC3, 18 hours after gemcitabine",94%
same,cells with clear Rad51 foci,BxPC3 cells; [4],92%
same,cells with diffuse 53BP1 pattern,BxPC3 cells; [4],10%
same,cells with diffuse Rad51 staining,BxPC3 cells; [4],8%
same,cells with punctate 53BP1 foci,BxPC3 cells; [4],90%
same,time until Rad51 foci visible after gemcitabine,"BxPC3 cells; parental BxPC3, gemcitabine 50 nM",8 h
same,cells exhibiting Rad51 foci,"BxPC3 cells; parental BxPC3, within 4 hours of gemcitabine treatment",92%
same,IC20,Panc1 cells,50 nM
same,IC50,"CFPAC1 cells; CFPAC-1, CFPAC1, VDR depleted (VDR siRNA), read-out: IC50 gemcitabine",~20 nM
same,IC50,"CFPAC1 cells; CFPAC-1, CFPAC1, control siRNA, read-out: mean IC50 gemcitabine",~45 nM
same,IC50,"CFPAC1 cells; CFPAC-1, CFPAC1 cells, read-out: IC50 gemcitabine",~45 nM
